Measured values published in PubChem BioAssay (NCI).
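In this assay, cells in 96-well plates receive the compound at five concentrations for 48 hours. Endpoints are linearly interpolated between the surrounding concentrations. GI50 is the concentration that inhibits growth by half. TGI: concentration producing complete growth inhibition.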

Assays:
Experiment in all cases: inhibition of tumour cell growth, NCI panel, 48 h; in the data active = GI50 below about 0.43 µM; inactive = the rest
KM12 colon = system: KM12 colon
HOP-62 NSCLC = system: HOP-62 NSCLC
NCI-H522 lung = system: NCI-H522 lung
SK-MEL-28 melanoma = system: SK-MEL-28 melanoma
SK-MEL-5 melanoma = system: SK-MEL-5 melanoma
HCT-15 colon = system: HCT-15 colon
CCRF-CEM leukemia = system: CCRF-CEM leukemia
OVCAR-3 ovarian = system: OVCAR-3 ovarian
SR leukemia = system: SR leukemia
NCI/ADR-RES ovarian = system: NCI/ADR-RES ovarian
HT29 colon = system: HT29 colon
MALME-3M melanoma = system: MALME-3M melanoma
U251 CNS = system: U251 CNS
BT-549 breast = system: BT-549 breast
SN12C renal = system: SN12C renal
UACC-62 melanoma = system: UACC-62 melanoma
MDA-MB-435 = system: MDA-MB-435
SF-539 CNS = system: SF-539 CNS
OVCAR-5 ovarian = system: OVCAR-5 ovarian
UO-31 renal = system: UO-31 renal
MCF7 breast = system: MCF7 breast
MOLT-4 leukemia = system: MOLT-4 leukemia
NCI-H226 lung = system: NCI-H226 lung
SNB-19 CNS = system: SNB-19 CNS
T-47D breast = system: T-47D breast
ACHN renal = system: ACHN renal
UACC-257 melanoma = system: UACC-257 melanoma
NCI-H23 lung = system: NCI-H23 lung
OVCAR-4 ovarian = system: OVCAR-4 ovarian
HS 578T breast = system: HS 578T breast
RPMI-8226 leukemia = system: RPMI-8226 leukemia
M14 melanoma = system: M14 melanoma
DU-145 prostate = system: DU-145 prostate
HL-60(TB) leukemia = system: HL-60(TB) leukemia
SK-OV-3 ovarian = system: SK-OV-3 ovarian
MDA-N = system: MDA-N
PC-3 prostate = system: PC-3 prostate
SK-MEL-2 melanoma = system: SK-MEL-2 melanoma
TK-10 renal = system: TK-10 renal
NCI-H460 lung = system: NCI-H460 lung
OVCAR-8 ovarian = system: OVCAR-8 ovarian
HCC-2998 colon = system: HCC-2998 colon
A549 NSCLC = system: A549 NSCLC
K-562 leukemia = system: K-562 leukemia
SW-620 colon = system: SW-620 colon
EKVX NSCLC = system: EKVX NSCLC
SF-295 CNS = system: SF-295 CNS
SNB-75 CNS = system: SNB-75 CNS
HOP-92 NSCLC = system: HOP-92 NSCLC
IGROV1 ovarian = system: IGROV1 ovarian
HCT-116 colon = system: HCT-116 colon
786-0 renal = system: 786-0 renal
MDA-MB-231 breast = system: MDA-MB-231 breast
RXF 393 renal = system: RXF 393 renal
SF-268 CNS = system: SF-268 CNS
CAKI-1 renal = system: CAKI-1 renal
LOX IMVI melanoma = system: LOX IMVI melanoma
COLO 205 colon = system: COLO 205 colon
A498 renal = system: A498 renal

O=C1CNc2cc(N3CCCCC3)ccc2N1
37.3 µM: TGI (NCI-H226 lung)
50.9 µM: TGI (EKVX NSCLC)
24.4 µM: TGI (HT29 colon)
> 100 µM: TGI (KM12 colon) | TGI (HOP-62 NSCLC) | TGI (NCI-H522 lung) | TGI (SK-MEL-28 melanoma) | TGI (SK-MEL-5 melanoma) | TGI (HCT-15 colon) | TGI (CCRF-CEM leukemia) | TGI (OVCAR-3 ovarian) | TGI (SR leukemia) | TGI (NCI/ADR-RES ovarian) | TGI (MALME-3M melanoma) | TGI (U251 CNS) | TGI (BT-549 breast) | TGI (SN12C renal) | TGI (UACC-62 melanoma) | TGI (MDA-MB-435) | TGI (SF-539 CNS) | TGI (OVCAR-5 ovarian) | TGI (UO-31 renal) | TGI (MCF7 breast) | TGI (MOLT-4 leukemia) | TGI (SNB-19 CNS) | TGI (T-47D breast) | TGI (ACHN renal) | TGI (UACC-257 melanoma) | TGI (NCI-H23 lung) | TGI (OVCAR-4 ovarian) | TGI (HS 578T breast) | TGI (RPMI-8226 leukemia) | TGI (M14 melanoma) | TGI (DU-145 prostate) | TGI (HL-60(TB) leukemia) | TGI (SK-OV-3 ovarian) | TGI (MDA-N) | TGI (PC-3 prostate) | TGI (SK-MEL-2 melanoma) | TGI (TK-10 renal) | TGI (NCI-H460 lung) | TGI (OVCAR-8 ovarian) | TGI (HCC-2998 colon) | TGI (A549 NSCLC) | TGI (K-562 leukemia) | TGI (SW-620 colon) | TGI (SF-295 CNS) | TGI (SNB-75 CNS) | TGI (HOP-92 NSCLC)
29.7 µM: TGI (IGROV1 ovarian)

CCOC(=O)CCCOc1cc(-c2ccccc2F)nc2cc3c(cc12)OCO3
98 µM: TGI (MOLT-4 leukemia)
55.7 µM: TGI (OVCAR-3 ovarian)
inactive: GI50 (HCT-116 colon) > 100 µM | GI50 (OVCAR-3 ovarian) 15 µM | GI50 (NCI-H226 lung) 48.7 µM | GI50 (RXF 393 renal) 25 µM | GI50 (SF-268 CNS) > 100 µM
14.5 µM: TGI (HCT-15 colon)
32.1 µM: TGI (HCC-2998 colon)
> 100 µM: TGI (KM12 colon) | TGI (HOP-62 NSCLC) | TGI (HCT-116 colon) | TGI (SK-MEL-28 melanoma) | TGI (SK-MEL-5 melanoma) | TGI (CCRF-CEM leukemia) | TGI (SR leukemia) | TGI (786-0 renal) | TGI (NCI/ADR-RES ovarian) | TGI (HT29 colon) | TGI (MALME-3M melanoma) | TGI (U251 CNS) | TGI (BT-549 breast) | TGI (SN12C renal) | TGI (UACC-62 melanoma) | TGI (MDA-MB-435) | TGI (SF-539 CNS) | TGI (OVCAR-5 ovarian) | TGI (MDA-MB-231 breast) | TGI (MCF7 breast) | TGI (NCI-H226 lung) | TGI (T-47D breast) | TGI (UACC-257 melanoma) | TGI (NCI-H23 lung) | TGI (RPMI-8226 leukemia) | TGI (RXF 393 renal) | TGI (M14 melanoma) | TGI (DU-145 prostate) | TGI (SK-OV-3 ovarian) | TGI (MDA-N) | TGI (SF-268 CNS) | TGI (CAKI-1 renal) | TGI (PC-3 prostate) | TGI (SK-MEL-2 melanoma) | TGI (TK-10 renal) | TGI (OVCAR-8 ovarian) | TGI (A549 NSCLC) | TGI (SW-620 colon) | TGI (EKVX NSCLC) | TGI (LOX IMVI melanoma) | TGI (SNB-75 CNS) | TGI (HOP-92 NSCLC) | TGI (IGROV1 ovarian) | TGI (COLO 205 colon)

CCC12CN(C(=O)OC)C3C(Br)C1CCC(=O)C32 (configuration not stated)
> 100 µM: TGI (KM12 colon) | TGI (A498 renal) | TGI (HOP-62 NSCLC) | TGI (NCI-H522 lung) | TGI (SK-MEL-28 melanoma) | TGI (SK-MEL-5 melanoma) | TGI (HCT-15 colon) | TGI (CCRF-CEM leukemia) | TGI (OVCAR-3 ovarian) | TGI (SR leukemia) | TGI (786-0 renal) | TGI (NCI/ADR-RES ovarian) | TGI (HT29 colon) | TGI (MALME-3M melanoma) | TGI (U251 CNS) | TGI (UACC-62 melanoma) | TGI (MDA-MB-435) | TGI (SF-539 CNS) | TGI (OVCAR-5 ovarian) | TGI (UO-31 renal) | TGI (MDA-MB-231 breast) | TGI (MCF7 breast) | TGI (MOLT-4 leukemia) | TGI (NCI-H226 lung) | TGI (SNB-19 CNS) | TGI (T-47D breast) | TGI (ACHN renal) | TGI (UACC-257 melanoma) | TGI (NCI-H23 lung) | TGI (OVCAR-4 ovarian) | TGI (HS 578T breast) | TGI (RPMI-8226 leukemia) | TGI (RXF 393 renal) | TGI (M14 melanoma) | TGI (DU-145 prostate) | TGI (HL-60(TB) leukemia) | TGI (SK-OV-3 ovarian) | TGI (MDA-N) | TGI (SF-268 CNS) | TGI (CAKI-1 renal) | TGI (PC-3 prostate) | TGI (SK-MEL-2 melanoma) | TGI (TK-10 renal) | TGI (NCI-H460 lung) | TGI (OVCAR-8 ovarian) | TGI (HCC-2998 colon) | TGI (A549 NSCLC) | TGI (K-562 leukemia) | TGI (SW-620 colon) | TGI (EKVX NSCLC) | TGI (LOX IMVI melanoma) | TGI (SF-295 CNS) | TGI (SNB-75 CNS) | TGI (HOP-92 NSCLC) | TGI (IGROV1 ovarian) | TGI (COLO 205 colon)

O=C(Cn1c2c(c3ccccc31)CCCC2)N1CCOCC1
> 100 µM: TGI (A498 renal) | TGI (HOP-62 NSCLC) | TGI (HCT-116 colon) | TGI (SK-MEL-5 melanoma) | TGI (HCT-15 colon) | TGI (CCRF-CEM leukemia) | TGI (OVCAR-3 ovarian) | TGI (786-0 renal) | TGI (NCI/ADR-RES ovarian) | TGI (HT29 colon) | TGI (MALME-3M melanoma) | TGI (BT-549 breast) | TGI (SN12C renal) | TGI (UACC-62 melanoma) | TGI (MDA-MB-435) | TGI (SF-539 CNS) | TGI (OVCAR-5 ovarian) | TGI (UO-31 renal) | TGI (MCF7 breast) | TGI (MOLT-4 leukemia) | TGI (SNB-19 CNS) | TGI (ACHN renal) | TGI (UACC-257 melanoma) | TGI (NCI-H23 lung) | TGI (OVCAR-4 ovarian) | TGI (HS 578T breast) | TGI (RPMI-8226 leukemia) | TGI (M14 melanoma) | TGI (HL-60(TB) leukemia) | TGI (SK-OV-3 ovarian) | TGI (MDA-N) | TGI (SF-268 CNS) | TGI (CAKI-1 renal) | TGI (PC-3 prostate) | TGI (SK-MEL-2 melanoma) | TGI (TK-10 renal) | TGI (NCI-H460 lung) | TGI (OVCAR-8 ovarian) | TGI (HCC-2998 colon) | TGI (A549 NSCLC) | TGI (K-562 leukemia) | TGI (SW-620 colon) | TGI (EKVX NSCLC) | TGI (LOX IMVI melanoma) | TGI (SF-295 CNS) | TGI (HOP-92 NSCLC) | TGI (IGROV1 ovarian) | TGI (COLO 205 colon)
